Data from patent US10407422B2, “Triazolopyridine inhibitors of myeloperoxidase” (priority 2015, dated 2019).
pIC50: −log10 of the molar value.

How the values were obtained:
myeloperoxidase (MPO) [1] = biological target: T1, myeloperoxidase (MPO) (Homo sapiens (Human), UniProt P05164); assay: MPO chlorination assay (APF assay); assay type: biochemical; settings: potency range class
Procedure, shortened: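 Chlorinating activity followed by APF cleavage to fluorescein (485/535 nm, 3 min kinetic read) after adding APF and 10 μM H2O2. Beforehand, 200 pM enzyme, compound and 120 mM NaCl sat 10 min at room temperature in 100 mM KPi, pH 7.4. Initial-rate slopes gave % inhibition; IC50 by Hill-slope fit.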

myeloperoxidase (MPO) [2] = biological target: T1, myeloperoxidase (MPO); assay: MPO peroxidation assay (Amplex Red assay); assay type: biochemical; settings: potency range class
Procedure, shortened: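 IC50 values come from a four-parameter fit of rates taken from the linear 180-540 s portion of a 15 min kinetic read of resorufin (Ex 535/Em 590 nm). Amplex Red (200 μM) plus 10 mM H2O2 was added after a 10 min room-temperature preincubation of inhibitor with 200 pM MPO and 40 nM H2O2 in 100 mM KPi, pH 7.4.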

T1 sequence (P05164 49-745): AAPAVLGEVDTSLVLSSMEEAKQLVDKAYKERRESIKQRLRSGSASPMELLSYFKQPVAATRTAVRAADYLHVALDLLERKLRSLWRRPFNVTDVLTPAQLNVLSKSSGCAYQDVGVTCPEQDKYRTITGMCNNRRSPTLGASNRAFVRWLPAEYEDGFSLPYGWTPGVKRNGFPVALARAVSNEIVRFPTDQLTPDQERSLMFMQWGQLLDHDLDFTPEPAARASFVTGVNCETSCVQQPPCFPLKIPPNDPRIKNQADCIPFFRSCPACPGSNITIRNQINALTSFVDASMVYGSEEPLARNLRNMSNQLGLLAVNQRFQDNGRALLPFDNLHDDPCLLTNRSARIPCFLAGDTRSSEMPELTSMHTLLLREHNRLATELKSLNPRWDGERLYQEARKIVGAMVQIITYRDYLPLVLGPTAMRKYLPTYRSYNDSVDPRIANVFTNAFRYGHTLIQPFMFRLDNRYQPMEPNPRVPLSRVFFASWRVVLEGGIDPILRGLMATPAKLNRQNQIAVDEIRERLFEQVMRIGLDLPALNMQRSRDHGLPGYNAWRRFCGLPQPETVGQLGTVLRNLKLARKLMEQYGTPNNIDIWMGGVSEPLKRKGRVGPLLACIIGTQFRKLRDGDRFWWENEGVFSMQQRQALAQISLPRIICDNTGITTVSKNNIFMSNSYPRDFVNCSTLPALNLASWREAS

Compound | pIC50 (myeloperoxidase (MPO) [1]) | pIC50 (myeloperoxidase (MPO) [2])
NCCN1Cc2ccc(Cn3cc(Cc4cc(N)nc5[nH]nnc45)cn3)cc2C1=O [Example 258, 6-{[4-({5-Amino-3H-[1,2,3]triazolo[4,5-b]pyridin-7-yl}methyl)-1H-pyrazol-1-yl]methyl}-2-(2-aminoethyl)-2,3-dihydro-1H-isoindol-1-one] | 6.00 to 7.00 | 6.00 to 7.00
Nc1cc(Cc2cnn(Cc3ccc4c(c3)C(=O)NCC4)c2)c2nn[nH]c2n1 [Example 259, 7-{[4-({5-Amino-3H-[1,2,3]triazolo[4,5-b]pyridin-7-yl}methyl)-1H-pyrazol-1-yl]methyl}-1,2,3,4-tetrahydroisoquinolin-1-one] | 6.00 to 7.00 | 7.00 to 9.00
Nc1cc(Cc2cnn(Cc3ccc4c(c3)C(c3ccccc3)CNC4)c2)c2nn[nH]c2n1 (stereo not shown) [Example 261, 7-({1-[(4-Phenyl-1,2,3,4-tetrahydroisoquinolin-6-yl)methyl]-1H-pyrazol-4-yl}methyl)-3H-[1,2,3]triazolo[4,5-b]pyridin-5-amine] | 7.00 to 9.00 | 7.00 to 9.00
Nc1cc(Cc2cnn(Cc3ccc4c(c3)C(C(F)(F)F)NCC4)c2)c2nn[nH]c2n1 (stereo not shown) [Example 262, 7-[(1-{[1-(Trifluoromethyl)-1,2,3,4-tetrahydroisoquinolin-7-yl]methyl}-1H-pyrazol-4-yl)methyl]-3H-[1,2,3]triazolo[4,5-b]pyridin-5-amine] | 6.00 to 7.00 | 6.00 to 7.00
Nc1cc(Cc2cnn(Cc3ccccc3OCc3ccccc3)c2)c2nn[nH]c2n1 [Example 263, 7-[(1-{[2-(Benzyloxy)phenyl]methyl}-1H-pyrazol-4-yl)methyl]-3H-[1,2,3]triazolo[4,5-b]pyridin-5-amine] | 6.00 to 7.00 | 7.00 to 9.00
Nc1cc(Cc2cnn(Cc3ccccc3Oc3ccccc3)c2)c2nn[nH]c2n1 [Example 264, 7-({1-[(2-Phenoxyphenyl)methyl]-1H-pyrazol-4-yl}methyl)-3H-[1,2,3]triazolo[4,5-b]pyridin-5-amine] | 6.00 to 7.00 | 7.00 to 9.00
Nc1cc(Cc2cnn(Cc3ccccc3Cc3ccccc3)c2)c2nn[nH]c2n1 [Example 265, 7-({1-[(2-Benzylphenyl)methyl]-1H-pyrazol-4-yl}methyl)-3H-[1,2,3]triazolo[4,5-b]pyridin-5-amine] | 7.00 to 9.00 | 7.00 to 9.00
Nc1cc(Cc2cnn(Cc3cccc4c3Cc3ccccc3-4)c2)c2nn[nH]c2n1 [Example 266, 7-{[1-(9H-Fluoren-1-ylmethyl)-1H-pyrazol-4-yl]methyl}-3H-[1,2,3]triazolo[4,5-b]pyridin-5-amine] | 6.00 to 7.00 | 7.00 to 9.00
Nc1cc(Cc2cnn(Cc3ccc4c(c3)CCC[C@@H]4N)c2)c2nn[nH]c2n1 [Example 267, 7-[(1-{[(5S)-5-Amino-5,6,7,8-tetrahydronaphthalen-2-yl]methyl}-1H-pyrazol-4-yl)methyl]-3H-[1,2,3]triazolo[4,5-b]pyridin-5-amine] | 7.00 to 9.00 | 7.00 to 9.00
Nc1cc(Cc2cnn(Cc3ccc4c(c3)CC[C@H]4N)c2)c2nn[nH]c2n1 [Example 268, 7-[(1-{[(1R)-1-Amino-2,3-dihydro-1H-inden-5-yl]methyl}-1H-pyrazol-4-yl)methyl]-3H-[1,2,3]triazolo[4,5-b]pyridin-5-amine] | 7.00 to 9.00 | 7.00 to 9.00
Nc1cc(Cc2cnn(Cc3ccc4c(c3)CCC[C@H]4N)c2)c2nn[nH]c2n1 [Example 269, 7-[(1-{[(5R)-5-Amino-5,6,7,8-tetrahydronaphthalen-2-yl]methyl}-1H-pyrazol-4-yl)methyl]-3H-[1,2,3]triazolo[4,5-b]pyridin-5-amine] | 7.00 to 9.00 | 7.00 to 9.00
Nc1cc(Cc2cnn(Cc3ccc4c(c3)CC[C@@H]4N)c2)c2nn[nH]c2n1 [Example 270, 7-[(1-{[(1S)-1-Amino-2,3-dihydro-1H-inden-5-yl]methyl}-1H-pyrazol-4-yl)methyl]-3H-[1,2,3]triazolo[4,5-b]pyridin-5-amine] | 6.00 to 7.00 | 6.00 to 7.00
N#Cc1ccc(Cn2cc(Cc3cc(N)nc4[nH]nnc34)cn2)cc1 [Example 271, 4-{[4-({5-Amino-3H-[1,2,3]triazolo[4,5-b]pyridin-7-yl}methyl)-1H-pyrazol-1-yl]methyl}benzonitrile] | 6.00 to 7.00 | 7.00 to 9.00
N#Cc1ccc(Cn2cc(Cc3cc(N)nc4[nH]nnc34)cn2)cc1F [Example 272, 4-{[4-({5-Amino-3H-[1,2,3]triazolo[4,5-b]pyridin-7-yl}methyl)-1H-pyrazol-1-yl]methyl}-2-fluorobenzonitrile] | 6.00 to 7.00 | 7.00 to 9.00
Nc1cc(Cc2cnn(CCCC3CCNCC3)c2)c2nn[nH]c2n1 [Example 273, 7-({1-[3-(Piperidin-4-yl)propyl]-1H-pyrazol-4-yl}methyl)-3H-[1,2,3]triazolo[4,5-b]pyridin-5-amine] | 6.00 to 7.00 | 7.00 to 9.00
Nc1cc(Cc2cnn(CC3CC4(CCNCC4)C3)c2)c2nn[nH]c2n1 [Example 274, 7-[(1-{7-Azaspiro[3.5]nonan-2-ylmethyl}-1H-pyrazol-4-yl)methyl]-3H-[1,2,3]triazolo[4,5-b]pyridin-5-amine] | 6.00 to 7.00 | 7.00 to 9.00
N#Cc1cc(Br)cc(Cn2cc(Cc3cc(N)nc4[nH]nnc34)cn2)c1 [Example 275, 3-{[4-({5-Amino-3H-[1,2,3]triazolo[4,5-b]pyridin-7-yl}methyl)-1H-pyrazol-1-yl]methyl}-5-bromobenzonitrile] | 6.00 to 7.00 | 7.00 to 9.00
Nc1cc(Cc2cnn(Cc3cc(Cl)cc(-c4ccccc4)c3)c2)c2nn[nH]c2n1 [Example 276, 7-({1-[(3-Chloro-5-phenylphenyl)methyl]-1H-pyrazol-4-yl}methyl)-3H-[1,2,3]triazolo[4,5-b]pyridin-5-amine] | 6.00 to 7.00 | 6.00 to 7.00
Nc1cc(Cc2cnn(Cc3ccc(F)c(Br)c3)c2)c2nn[nH]c2n1 [Example 277, 7-({1-[(3-Bromo-4-fluorophenyl)methyl]-1H-pyrazol-4-yl}methyl)-3H-[1,2,3]triazolo[4,5-b]pyridin-5-amine] | 7.00 to 9.00 | 7.00 to 9.00
Nc1cc(Cc2cnn(Cc3cccc(-c4c[nH]cn4)c3)c2)c2nn[nH]c2n1 [Example 278, 7-[(1-{[3-(1H-Imidazol-4-yl)phenyl]methyl}-1H-pyrazol-4-yl)methyl]-3H-[1,2,3]triazolo[4,5-b]pyridin-5-amine] | 6.00 to 7.00 | 7.00 to 9.00
Cc1[nH]c(-c2ccccc2)nc1-c1cccc(Cn2cc(Cc3cc(N)nc4[nH]nnc34)cn2)c1 [Example 279, 7-[(1-{[3-(5-Methyl-2-phenyl-1H-imidazol-4-yl)phenyl]methyl}-1H-pyrazol-4-yl)methyl]-3H-[1,2,3]triazolo[4,5-b]pyridin-5-amine] | 6.00 to 7.00 | 7.00 to 9.00
Nc1cc(Cc2cnn(C[C@@H]3C[C@H](Oc4ccc(F)cc4)CN3)c2)c2nn[nH]c2n1 [Example 280, 7-[(1-{[(2S,4S)-4-(4-Fluorophenoxy)pyrrolidin-2-yl]methyl}-1H-pyrazol-4-yl)methyl]-3H-[1,2,3]triazolo[4,5-b]pyridin-5-amine] | 6.00 to 7.00 | 7.00 to 9.00
Nc1cc(Cc2cnn(CC3CC(Cc4ccc(F)cc4)CN3)c2)c2nn[nH]c2n1 (stereo not shown) [Example 281, 7-{[1-({4-[(4-Fluorophenyl)methyl]pyrrolidin-2-yl}methyl)-1H-pyrazol-4-yl]methyl}-3H-[1,2,3]triazolo[4,5-b]pyridin-5-amine] | 7.00 to 9.00 | 7.00 to 9.00
Nc1cc(Cc2cnn(C[C@H]3C[C@H](Oc4ccc(F)cc4)CN3)c2)c2nn[nH]c2n1 [Example 282, 7-[(1-{[(2R,4S)-4-(4-Fluorophenoxy)pyrrolidin-2-yl]methyl}-1H-pyrazol-4-yl)methyl]-3H-[1,2,3]triazolo[4,5-b]pyridin-5-amine] | 7.00 to 9.00 | 7.00 to 9.00
Nc1cc(Cc2cn(Cc3ccccc3)nc2C(F)(F)F)c2nn[nH]c2n1 [Example 283, 7-{[1-Benzyl-3-(trifluoromethyl)-1H-pyrazol-4-yl]methyl}-3H-[1,2,3]triazolo[4,5-b]pyridin-5-amine] | 6.00 to 7.00 | 5.00 to 6.00
Nc1cc(Cc2cn(Cc3cccc(C4CCNCC4)c3)nc2C(F)(F)F)c2nn[nH]c2n1 [Example 284, 7-((1-(3-(Piperidin-4-yl)benzyl)-3-(trifluoromethyl)-1H-pyrazol-4-yl)methyl)-3H-[1,2,3]triazolo[4,5-b]pyridin-5-amine] | 6.00 to 7.00 | 6.00 to 7.00
Nc1cc(Cc2cnn(Cc3cccc(C4CCNCC4)c3)c2C(F)(F)F)c2nn[nH]c2n1 [Example 285, 7-[(1-{[3-(Piperidin-4-yl)phenyl]methyl}-5-(trifluoromethyl)-1H-pyrazol-4-yl)methyl]-3H-[1,2,3]triazolo[4,5-b]pyridin-5-amine] | 7.00 to 9.00 | 7.00 to 9.00
Nc1cc(Cc2cn(Cc3cccc(C4CCNCC4)c3)nc2C(F)F)c2nn[nH]c2n1 [Example 286, 7-{[3-(Difluoromethyl)-1-{[3-(piperidin-4-yl)phenyl]methyl}-1H-pyrazol-4-yl]methyl}-3H-[1,2,3]triazolo[4,5-b]pyridin-5-amine] | 6.00 to 7.00 | 6.00 to 7.00
COc1ccc(CN2CCc3ccc(Cn4cc(Cc5cc(N)nc6[nH]nnc56)cn4)cc3C2=O)cc1 [Example 287, 7-{[4-({5-Amino-3H-[1,2,3]triazolo[4,5-b]pyridin-7-yl}methyl)-1H-pyrazol-1-yl]methyl}-2-[(4-methoxyphenyl)methyl]-1,2,3,4-tetrahydroisoquinolin-1-one] | 5.00 to 6.00 | 7.00 to 9.00
